Experimental data as given in PMC6316490, “Synthesis and Antiproliferative Activity of Marine Bromotyrosine Purpurealidin I and Its Derivatives” (Marine Drugs, 2018).

Key:
[1] = system: human malignant melanoma cell line (A-375); test: Cytotoxicity in A-375 cells, CellTiter-Glo ATP viability, 48-h incubation; assay type: cell-based; conditions: for CC50 / cytotoxicity at 50 µM: Homo sapiens, 48 h; for CC50: A-375, 48 h, cytotoxic concentration that caused death of 50% cells; for CC50 / cytotoxicity at 50 µM / Cytotoxic activity in A-375 cells (in words): A-375 cells; for cytotoxicity at 50 µM: read-out: Primary Test Result (Cytotoxicity % at 50 µM in A-375 Cells); for Selectivity Index: ratio of CC50 in Hs27 fibroblasts over CC50 in A-375 melanoma cells; for Cytotoxic activity in A-375 cells (in words): SAR discussion
Experimental: (§1) Human malignant melanoma cell line A-375 was kindly provided by Prof. Marikki Laiho (University of Helsinki, Finland) and Hs27 human skin fibroblast cell line was kindly provided by Dr. Carmen Escobedo-Lucea (University of Helsinki, Finland). The cells were maintained in Glutamax high glucose Dulbecco’s Modified Eagle’s Medium (DMEM, Gibco), supplemented with 10% fetal bovine serum (FBS, Gibco), at 37 °C, 5% CO2.
(§2) The cells were seeded to white frame and clear bottom 96-well plates (Perkin Elmer) at the density of 10,000 cells/well for A-375 cell line and 7500 cells/well for Hs27 cell line. The cells were grown at 37 °C, 5% CO2 until they reached 70–80% confluence (approximately 24 h). Stock solutions of test compounds and a positive control (camptothecin, Sigma-Aldrich, Saint Louis, MO, USA) were prepared in DMSO and diluted into assay medium (growth medium with 5% FBS) to the final concentration. Final DMSO concentration was 0.5% in all samples. The culture medium was removed from the plate and compounds added, 200 µL/well. After 48-h incubation, the amount of ATP, which is directly proportional to the number of cells present in culture, was quantified using CellTiter-Glo® Luminescent Cell Viability kit (Promega, Madison, WI, USA), according to manufacturer’s instructions.
(§3) Origin Graphing and Analysis, version 8.6 (OriginLab, Northampton, MA, USA) was used for determination of CC50 values. The cancer cell selectivity index (SI) was calculated as a ratio of CC50 values between Hs27 fibroblasts and A-375 melanoma cells.

[2] = Cytotoxicity in Hs27 cells, CellTiter-Glo ATP viability, 48-h incubation; assay type: cell-based; conditions: human, Hs27 normal skin fibroblast cells, Hs27 normal fibroblasts
Experimental: as §1, §2, §3

[3] = system: A2780S, A2780CP (SCP5), A549, MCF7, U251MG cells and NIH3T3; parameters: method as in PMID 26711149; conditions: cited from earlier work
[4] = system: human cervical carcinoma HeLa cells; parameters: method as in doi:10.1016/j.tetlet.2010.07.016; conditions: cited from earlier work

Structure (SMILES) | CC50 [1] [µM] | cytotoxicity at 50 µM [1] [%] | Selectivity Index [1] | CC50 at 48 h [2] [µM] | other results
CC[C@@]1(O)C(=O)OCc2c1cc1n(c2=O)Cc2cc3ccccc3nc2-1 [Camptothecin, reference compound] | 0.06 | 94.7 | 92.3 | 5.54 | 
CNCCCOc1c(Br)cc(CCNC(=O)/C(Cc2cc(Br)c(OC)c(Br)c2)=N/O)cc1Br [Compound 1, (E)-N-[3,5-Dibromo-4-[3-(methylamino)propoxy]phenethyl]-3-(3,5-dibromo-4-methoxyphenyl)-2-(hydroxyimino)propenamide] | 4.3 | 97.9 | 1.2 | 5.2 | Selectivity between A-375 and Hs27 (in words) ([1]; A-375 vs Hs27): no selectivity; Cytotoxicity against various cancer cell lines and non-cancer NIH3T3 (in words) [3]: cytotoxic
COc1c(Br)cc(C/C(=N\O)C(=O)NCCc2cc(Br)c(OCCCN)c(Br)c2)cc1Br [Compound 3] |  |  |  |  | Cytotoxic effect on HeLa cells (in words) [4]: comparably strong cytotoxic effect
COc1c(Br)cc(C/C(=N\O)C(=O)NCCc2cc(Br)c(O)c(Br)c2)cc1Br [Compound 4] |  |  |  |  | Cytotoxic effect on HeLa cells (in words) [4]: comparably strong cytotoxic effect
COc1c(Br)cc(C/C(=N\O)C(=O)NCCc2cc(Br)c(OCCCN(C)C)c(Br)c2)cc1Br [Compound 29, (E)-N-[3,5-Dibromo-4-[3-(dimethylamino)propoxy]phenethyl]-3-(3,5-dibromo-4-methoxyphenyl)-2-(hydroxyimino)propanamide] | 6.3 | 99.9 | 0.7 | 4.5 | 
COc1c(Br)cc(C/C(=N\O)C(=O)Nc2ccc(Cl)c(Cl)c2)cc1Br [Compound 30, (E)-3-(3,5-Dibromo-4-methoxyphenyl)-N-(3,4-dichlorophenyl)-2-(hydroxyimino)propanamide] | 13.1 | 101 | 1.2 | 15.2 | melting point: 198 °C (dec.)
COc1c(Br)cc(C/C(=N\O)C(=O)NCc2ccc(Cl)c(Cl)c2)cc1Br [Compound 31, (E)-3-(3,5-Dibromo-4-methoxyphenyl)-N-(3,4-dichlorobenzyl)-2-(hydroxyimino)propanamide] | 12.4 | 99.7 | 1.8 | 22.3 | 
COc1c(Br)cc(C/C(=N\O)C(=O)Nc2ccc(Cl)c(C(F)(F)F)c2)cc1Br [Compound 32, (E)-N-[4-Chloro-3-(trifluoromethyl)phenyl]-3-(3,5-dibromo-4-methoxyphenyl)-2-(hydroxyimino) propanamide] | 10.3 | 99.8 | 1.2 | 12 | 
COc1ccc(NC(=O)/C(Cc2cc(Br)c(OC)c(Br)c2)=N/O)cc1Cl [Compound 33, (E)-N-(3-Chloro-4-methoxyphenyl)-3-(3,5-dibromo-4-methoxyphenyl)-2-(hydroxyimino)propanamide] | 13.5 | 98.9 | 2.0 | 26.4 | 
COc1ccc(NC(=O)/C(Cc2cc(Br)c(OC)c(Br)c2)=N/O)cc1Br [Compound 34, (E)-N-(3-Bromo-4-methoxyphenyl)-3-(3,5-dibromo-4-methoxyphenyl)-2-(hydroxyimino)propanamide] | 16.2 | 100 | 1.4 | 22.5 | 
COc1c(Br)cc(C/C(=N\O)C(=O)Nc2cc(Cl)cc(Cl)c2)cc1Br [Compound 35, (E)-3-(3,5-Dibromo-4-methxyphenyl)-N-(3,5-dichlorophenyl)-2-(hydroxyimino)propanamide] | 9.6 | 101 | 1.3 | 12.2 | 
COc1c(Br)cc(C/C(=N\O)C(=O)Nc2ccccn2)cc1Br [Compound 36, (E)-3-(3,5-Dibromo-4-methoxyphenyl)-2-(hydroxyimino)-N-(pyridin-2-yl)propanamide] | 4.7 | 84.7 | 4.1 | 19.4 | melting point: 192 to 196 °C (dec.)
COc1c(Br)cc(C/C(=N\O)C(=O)Nc2cccnc2)cc1Br [Compound 37, (E)-3-(3,5-Dibromo-4-methoxyphenyl)-2-(hydroxyimino)-N-(pyridin-3-yl)propanamide] | 26.4 | 83.5 |  |  | 
COc1c(Br)cc(C/C(=N\O)C(=O)Nc2ccncc2)cc1Br [Compound 38, (E)-3-(3,5-Dibromo-4-methoxyphenyl)2-(hydroxyimino)-N-(pyridin-4-yl)propanamide] |  | 71.1 |  |  | 
COc1c(Br)cc(C/C(=N\O)C(=O)NCc2cccnc2)cc1Br [Compound 39, (E)-3-(3,5-Dibromo-4-methoxyphenyl)-2-(hydroxyimino)-N-(pyridin-3-ylmethyl)propanamide] | 22.1 | 93.2 |  |  | Cytotoxic activity in A-375 cells (in words) [1]: retained the activity
COc1c(Br)cc(C/C(=N\O)C(=O)Nc2ccc(N(C)C)cc2)cc1Br [Compound 40, (E)-3-(3,5-Dibromo-4-methoxyphenyl)-N-[4-(dimethylamino)phenyl]-2-(hydroxyimino)propanamide] | 27.8 | 99.1 |  |  | 
COc1ccc(C/C(=N\O)C(=O)Nc2ccc(OC)c(Br)c2)cc1Br [Compound 41, (E)-N,3-Bis(3-bromo-4-methoxyphenyl)-2-(hydroxyimino)propanamide] | 19.8 | 99.2 |  |  | Cytotoxic activity in A-375 cells (in words) [1]: showed activity
COc1ccc(C/C(=N\O)C(=O)Nc2ccccn2)cc1Br [Compound 42, (E)-3-(3-Bromo-4-methoxyphenyl)-2-(hydroxyimino)-N-(pyridin-2-yl)propanamide] |  | 2.7 |  |  | Cytotoxic activity in A-375 cells (in words) [1]: inactive; melting point: 214 to 217 °C (dec.)
COc1ccc(C/C(=N\O)C(=O)NCc2ccc(Cl)c(Cl)c2)cc1 [Compound 43, (E)-N-(3,4-Dichlorobenzyl)-2-(hydroxyimino)-3-(4-methoxyphenyl)propanamide] |  | 21.5 |  |  | 
COc1ccc(C/C(=N\O)C(=O)Nc2ccccn2)cc1 [Compound 44, (E)-2-(Hydroxyimino)-3-(4-methoxyphenyl)-N-(pyridin-2-yl)propanamide] |  | 0.4 |  |  | Cytotoxic activity in A-375 cells (in words) [1]: inactive
COc1ccc(C/C(=N\O)C(=O)Nc2ccccn2)cc1Cl [Compound 45, (E)-3-(3-Chloro-4-methoxyphenyl)-2-(hydroxyimino)-N-(pyridin-2-yl)propanamide] |  | 4 |  |  | Cytotoxic activity in A-375 cells (in words) [1]: inactive
